Measurements as given in article PMC12040169 (PLOS Biology, 2025).

Assay: in vitro
Conditions: human, hela cells, % viability
`CN1CCC(N2CC[C@@H]3[C@H]2C(=O)NC[C@H](CCC(=O)NCc2ccc(F)cc2)N3C)CC1` [CBK289022] showed a viability at 28.5 h, 10 µM of 90.6%. `O=C(NC1=NCCS1)c1cc2ccccc2o1` [CBK058927] gave a viability at 28.5 h, 10 µM of 80.8%. Work on `C/C(=N/NC(=O)C(C)CN1CCOCC1)c1ccc(Cl)cc1` (stereo not shown) [CBK016045] yielded a viability at 28.5 h, 10 µM of 81.4%. `Nc1cccc(-c2nccnc2NCc2cccs2)c1` [CBK037537] gave a viability at 28.5 h, 10 µM of 104%. With `CC(NC(=O)C1(Cn2ccnc2)CC1)c1nncn1C(C)C` (stereo not shown) [CBK306682] the viability at 28.5 h, 10 µM was 99.5%. In the case of `CCC1c2ccc(C)n2CCN1C(=O)c1cc(-c2ccccn2)n[nH]1` (stereo not shown) [CBK283225], the viability at 28.5 h, 10 µM was 86.4%. In the case of `COc1cccc(NC(=O)CC(CN2CCN(c3ccccc3)CC2)C(=O)O)c1` (stereo not shown) [CBK286789], the viability at 28.5 h, 10 µM was 90.7%. `C#CCNS(=O)(=O)c1cccc(C(=O)NC2CCN(CCOC)CC2)c1` [CBK305714] gave a viability at 28.5 h, 10 µM of 89%. With `O=C(NCc1ccc2c(c1)OCO2)c1ccc2[nH]ccc2c1` [CBK161750] the viability at 28.5 h, 10 µM was 106%. In the case of `Cc1cc(C)c(NC(N)=O)c(C)c1` [CBK086399], the viability at 28.5 h, 10 µM was 105%. `O=C(Cc1c[nH]c2ccccc12)N1CCC2(CCCN(CCO)C2)C1` (stereo not shown) [CBK132045] showed a viability at 28.5 h, 10 µM of 95.9%. Work on `O=C(O)CC1SC(Nc2cccc(Cl)c2)=NC1=O` (stereo not shown) [CBK131683] yielded a viability at 28.5 h, 10 µM of 105%. Work on `O=C(Nc1ccc2[nH]ccc2c1)c1ccc(Cl)cc1` [CBK159668] yielded a viability at 28.5 h, 10 µM of 98.4%. `CN1C[C@@H](NC(=O)c2ccc3c(c2)OCO3)C[C@H]1c1nc(-c2ccccc2)no1` [CBK288876] gave a viability at 28.5 h, 10 µM of 108%. In the case of `OCCc1ccc(Nc2cc(-c3ccc4c(c3)OCO4)ncn2)cc1` [CBK090767], the viability at 28.5 h, 10 µM was 97.8%. For `COc1ccc(C(NC(=O)c2cn3ccsc3n2)[C@H]2C[C@H](O)C2)cn1` (stereo partly shown) [CBK306744], the viability at 28.5 h, 10 µM was 101%. For `CCOc1ccc(-c2cn(C(=O)Nc3ccccc3)nc2N)cc1` [CBK267317], the viability at 28.5 h, 10 µM was 90.3%. For `CC(C)Nc1nccnc1-c1cccc(O)c1` [CBK037089], the viability at 28.5 h, 10 µM was 97.3%. Molecule `CC(=O)NCCn1cc2c(n1)[C@H]1CN(C(=O)C(C)(C)C)C[C@H]1CC2` [CBK282168] has a viability at 28.5 h, 10 µM of 102%. `O=C(c1ccc2ncccc2c1)N1CCN(c2ncccn2)CC1` [CBK144503] showed a viability at 28.5 h, 10 µM of 87.9%. With `Cc1cc(C)nc(N/C(=N\C(=O)Nc2ccccc2)NCc2cccnc2)n1` [CBK132681] the viability at 28.5 h, 10 µM was 92.2%. `Cc1nc(O)c2c3c(sc2n1)CCCC3` [CBK016462] showed a viability at 28.5 h, 10 µM of 83.1%. `Cc1n[nH]c(C)c1C1COCCN1C(=O)c1cccc(F)c1` (stereo not shown) [CBK305105] gave a viability at 28.5 h, 10 µM of 86.9%. `O=C(O)c1ccccc1C(=O)Nc1c(-c2ccccc2)nc2ccccn12` [CBK287041] showed a viability at 28.5 h, 10 µM of 96.2%. Work on `O=C(O)C1CSC(c2ccccc2)N1` (stereo not shown) [CBK261008] yielded a viability at 28.5 h, 10 µM of 114%. Molecule `CN(C)Cc1cc(-c2ccccc2F)nn1CCNC(=O)C1CC1` [CBK282006] has a viability at 28.5 h, 10 µM of 90.5%. `CC(=O)Oc1ccc(-c2cccc(C(=O)NCCO)c2)cc1` [CBK263829] showed a viability at 28.5 h, 10 µM of 105%. With `Cc1conc1C(=O)N1CCCCC1CN1CCOCC1` (stereo not shown) [CBK304771] the viability at 28.5 h, 10 µM was 92.7%. With `CCn1cc(C(=O)O)c(=O)c2cnc(N3CCN(C(=S)Nc4cc5oc6ccccc6c5cc4OC)CC3)nc21` [CBK267929] the viability at 28.5 h, 10 µM was 101%. `CCCC(=O)Nc1ccc(C(=O)N2CCN(CC)CC2)cc1` [CBK304218] showed a viability at 28.5 h, 10 µM of 88.6%. `Cc1nc(CC(=O)NC2CCCN(c3ccn(C)n3)C2=O)c(C)s1` (stereo not shown) [CBK304422] gave a viability at 28.5 h, 10 µM of 82.8%. In the case of `COc1ccc(CC(=O)N2CCC(c3cc4ccccc4cn3)C2)cc1` (stereo not shown) [CBK283421], the viability at 28.5 h, 10 µM was 105%. In the case of `O=C(NCc1ccccc1OC1CCNC1)c1ccccn1` (stereo not shown) [CBK029464T], the viability at 28.5 h, 10 µM was 91.6%. `CC(NC(=O)Nc1ccccc1O)(C(F)(F)F)C(F)(F)F` [CBK268019] gave a viability at 28.5 h, 10 µM of 101%. For `COc1ccc(-c2noc(CSc3nnc(-c4c[nH]c5ccccc45)n3C)n2)cc1OC` [CBK268644], the viability at 28.5 h, 10 µM was 88.8%. `O=C(O)c1cccc(NC(=O)c2ccc(COc3ccc(-c4ccccc4)cc3)o2)c1` [CBK299778] showed a viability at 28.5 h, 10 µM of 105%. In the case of `C/C(=C\C(=O)NC1CC(C)(C)NC(C)(C)C1)NC1CC(C)(C)NC(C)(C)C1` [CBK261982], the viability at 28.5 h, 10 µM was 113%. For `CCCc1ccc(N(C)C(=O)c2ccc(C(C)(C)C)cc2)cc1` [CBK161612], the viability at 28.5 h, 10 µM was 103%. Molecule `O=C(CN1C(=O)C2CCC(c3ccccc3)CC2C1=O)Nc1cccc2ccccc12` (stereo not shown) [CBK268061] has a viability at 28.5 h, 10 µM of 86%. `CC(=O)c1c(C)c2c(=O)n3c(nc2[nH]c1=O)CCC3` [CBK287872] gave a viability at 28.5 h, 10 µM of 93.6%. Molecule `O=C(NC(=S)Nc1ccc(S(=O)(=O)Nc2nccs2)cc1)C12CC3CC(CC(C3)C1)C2` [CBK261067] has a viability at 28.5 h, 10 µM of 101%. `COc1ccc([C@H]2CN(Cc3ccccc3)C[C@@H]2NC(C)=O)cc1` [CBK282930] gave a viability at 28.5 h, 10 µM of 92.1%. For `COc1ccccc1N1CCN(CCCCNS(=O)(=O)c2ccc(Cl)c(Cl)c2)CC1` [CBK074837], the viability at 28.5 h, 10 µM was 97.8%. Work on `COc1ccccc1NC(=O)c1sc2ncn(CC(=O)NC3CCCCC3)c(=O)c2c1C` [CBK265788] yielded a viability at 28.5 h, 10 µM of 98.5%. Molecule `CC(=O)c1ccc(-c2ccc(C(=O)N(C)CCN(C)C)c(N(C)C)n2)s1` [CBK106071] has a viability at 28.5 h, 10 µM of 85.6%. `CCN1CC(C(=O)N2CCCCC2CN(C)C)CC1=O` (stereo not shown) [CBK282056] gave a viability at 28.5 h, 10 µM of 108%. Work on `CSc1ccc(-n2cc(-c3ccc(F)cc3F)nn2)cc1` [CBK112979] yielded a viability at 28.5 h, 10 µM of 99.3%. With `CC(C)C(NS(=O)(=O)c1ccc(I)cc1)C(=O)O` (stereo not shown) [CBK268703] the viability at 28.5 h, 10 µM was 106%. `O=c1[nH]c2ccc(NS(=O)(=O)c3ccc4c(c3)OCCCO4)cc2[nH]1` [CBK295315] gave a viability at 28.5 h, 10 µM of 87.7%. `O=C(c1ccc(S(=O)(=O)N2CCCC2)cc1)N1CCN(C/C=C/c2ccccc2)CC1` [CBK263587] showed a viability at 28.5 h, 10 µM of 103%. Molecule `CCOc1cc(CCC(=O)NC(C)c2ccccc2)on1` (stereo not shown) [CBK282597] has a viability at 28.5 h, 10 µM of 82.3%. `O=c1c(N2CCNCC2)nccn1CCc1cccs1` [CBK050382T] gave a viability at 28.5 h, 10 µM of 89.3%. Molecule `CCCC1CCN(CC2C=Cc3cc(-c4ccc(S(C)(=O)=O)cc4)ccc3O2)CC1` (stereo not shown) [CBK158647] has a viability at 28.5 h, 10 µM of 86.2%. With `O=C(CN1C(=O)c2ccc([N+](=O)[O-])cc2C1=O)Nc1ccc(O)cc1C(=O)O` [CBK263456] the viability at 28.5 h, 10 µM was 95.5%. `CC(=O)N[C@@H](CC(C)C)C(=O)Nc1cc(C)nc2ccccc12` [CBK116265] showed a viability at 28.5 h, 10 µM of 94.3%. `O=C(Nc1ccc(-c2c3ccccc3c(-c3ccc(NC(=O)c4cccc5ccccc45)cc3)c3ccccc23)cc1)c1cccc2ccccc12` [CBK261164] showed a viability at 28.5 h, 10 µM of 93.6%. `O=C(O)Cc1csc(NC(=O)c2ccc(N3CCCCC3)c([N+](=O)[O-])c2)n1` [CBK296081] gave a viability at 28.5 h, 10 µM of 84.7%. `C[C@]12CN(Cc3cccs3)C[C@H]1C(=O)Nc1ccccc1C(=O)N2` [CBK284705] gave a viability at 28.5 h, 10 µM of 98.2%. `CCC(C)c1csc(C2CN3CCCC3CO2)n1` (stereo not shown) [CBK304805] gave a viability at 28.5 h, 10 µM of 81.5%. In the case of `CC1(C)C(=O)NCCN1C(=O)Cn1cnc2ccccc21` [CBK281856], the viability at 28.5 h, 10 µM was 89.3%. For `Cc1cc(Br)ccc1NC(=O)CSc1nnc(-c2ccccc2O)n1-c1ccccc1` [CBK268086], the viability at 28.5 h, 10 µM was 90.7%. Work on `Cc1ncsc1C(=O)N1CCNCC1c1cccc(F)c1` (stereo not shown) [CBK305463] yielded a viability at 28.5 h, 10 µM of 93.1%. `CC(=O)N(C)c1ncc(Br)cc1C(=O)NCC1COc2ccccc2O1` (stereo not shown) [CBK076558] gave a viability at 28.5 h, 10 µM of 91.7%. In the case of `Cc1ccnn1CCC(=O)N1CCn2cc(C(F)(F)F)nc2C1` [CBK283912], the viability at 28.5 h, 10 µM was 110%.
